Results reported in US9290535B2, “Uridine-based gadolinium complex and MRI contrast agent including the same” (Korea University Researchand Business Foundation, priority 2011, dated 2016).
“And” between values parts separate entries of the source, which are not always exact repeats. Identical values can stand only once. Each block holds one molecule with its values, some of them ahead of it.

Tests used:
[1] = Relaxivity measurements (r1, r2) in PBS solution; type: physicochemical; details: for Relaxivity r1: PBS solution, 36° C.
Procedure: The relaxation efficiency of the newly synthesized amphiphilic MRI contrast agents according to the present invention was determined by measuring longitudinal relaxivity (r1) and transverse relaxivity (r2) at 20 MHZ (0.47 T) and 60 MHz (1.41 T) in phosphate buffered saline (PBS) solution at 36° C.

[2] = molecular target: T1, human serum albumin (HSA) (Homo sapiens, UniProt P02768); assay: Interaction with human serum albumin (relaxivity with HSA, binding constant); details: 36° C.; for Relaxivity r1^a (with HSA): PBS solution with 0.65 mM HSA
T1 construct: purchased Sigma (Bornem, Belgium) A3782
T1 sequence (P02768 25-609): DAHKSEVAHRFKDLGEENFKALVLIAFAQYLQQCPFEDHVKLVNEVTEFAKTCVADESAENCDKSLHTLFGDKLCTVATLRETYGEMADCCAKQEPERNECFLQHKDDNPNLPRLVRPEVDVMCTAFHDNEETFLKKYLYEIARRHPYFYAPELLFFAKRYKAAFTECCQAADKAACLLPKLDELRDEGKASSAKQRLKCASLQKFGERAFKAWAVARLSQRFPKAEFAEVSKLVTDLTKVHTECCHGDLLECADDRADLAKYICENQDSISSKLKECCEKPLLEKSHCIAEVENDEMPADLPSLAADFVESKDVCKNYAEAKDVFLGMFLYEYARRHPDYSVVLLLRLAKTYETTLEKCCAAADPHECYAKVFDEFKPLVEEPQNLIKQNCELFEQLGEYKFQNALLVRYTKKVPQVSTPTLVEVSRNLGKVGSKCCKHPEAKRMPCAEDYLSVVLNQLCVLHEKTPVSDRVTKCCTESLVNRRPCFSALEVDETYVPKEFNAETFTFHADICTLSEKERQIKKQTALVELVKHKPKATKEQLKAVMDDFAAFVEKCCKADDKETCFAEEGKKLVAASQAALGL
Excerpt: It is well known that non-covalent interaction of the contrast agent with human serum albumin (HSA) increases its circulation time in blood and slows down tubling rate, leading to greater contrast enhancement for blood vessel imaging. In this example, effective interaction between the newly synthesized contrast agents (CAs) and human serum albumin (HSA) were investigated.
Human serum albumin (HSA; Product No. A3782) was purchased from Sigma (Bornem, Belgium) and was used without further purification. HSA binding experiment was performed with 50 μM of the complexes LGd1-5 in PBS solution depending on the concentration of HSA from 0 to 4 mM at 20 MHz and 36° C.
The increment of R1/R1^0 with increasing aliphatic chain length is: LGd2>LGd3>LGd4>LGd5.
Furthermore, to know the non-covalent binding strength between HSA and the complex, a binding constant (Ka) of (3.34±0.28)×10^3 M^−1 for the complex LGd3 was determined using the theoretical equation reported in the reference (D. T. Schuhle, J. Schatz, S. Laurent, L. V. Elst, R. N. Muller, M. C. A. Stuart, J. A. Peters, Chem. Eur. J. 2009, 15, 3290). The relaxivity for the non-aggregate form of LGd3 (r1^f) was measured to be 18.5 mM^−1s^−1 (below CMC=50 μM; FIG. 10), while for adduct LGd3.HSA (r1^c), 41.0 mM^−1s^−1 at 36° C. and 20 MHz (0.47 T) in PBS solution. […] As a result, the complex LGd3 of the present invention could be retained in vivo for a longer time.

[3] = pH dependence of water 1H relaxivity; type: physicochemical
Procedure: The relaxivities of the non-aggregated complex LGd1 and the most aggregated complex LGd3 (FIG. 7, average diameter […]) were investigated at various pH values (3.5-11) at 60 MHz (1.41 T) and 36° C.
The pH dependence of water ^1H-NMR relaxivity r1 was obtained at 60 MHz and 36° C. The complexes LGd1 and LGd3 were dissolved in previously prepared stock solutions (StockOptions pH Screen, Hampton Research, USA) at pH 3.5-11.

[4] = Dynamic light scattering (DLS) of micelles; type: physicochemical
[5] = Critical micelle concentration from 1/T1 versus concentration; type: physicochemical; details: FIG. 10
Procedure: Longitudinal and transverse relaxivities, r1 and r2, were measured at 20 MHz (0.47 T) and 60 MHz (1.41 T) at 36° C. on NMR (mq20 and mq60, Bruker, Germany) and animal MRI (Biospec 47/40, Bruker, Germany) systems. T1 and T2 relaxation times were measured with inversion recovery and spin-echo pulse sequences, respectively. The critical micelle concentration (cmc) of the complex LGd3 was determined by measuring the proton relaxation rate 1/T1 as a function of complex LGd3 concentration.

[6] = Stability against transmetallation by Zn2+ (time evolution of proton relaxation rate); type: physicochemical; details: for Relaxivity retained after transmetallation: 2.5 mM complex with 2.5 mM ZnCl2 in PBS, after 70 h; for y0 of fit y0+A×exp(−t/C1) of proton relaxation rate during transmetallation: Zn(II) ions, PBS, 20 MHz (0.47 T), 36° C., steady state in about 70 h
Procedure: The stability of the gadolinium complex against various biologically active metal ions is very important in in vivo applications. Among them, only Zn^2+ can displace significant amounts of the Gd^3+ ion as concentration of Zn^2+ in blood is relatively high (55-125 μM/L). The stability of the complexes LGd1-4 against transmetallation by Zn^2+ was studied employing the method of others.
The time evolution of the ^1H longitudinal relaxivity (R1) of a 2.5 mM gadolinium complex with 2.5 mM ZnCl2 in PBS solution was measured. Stability of the amphiphilic complex LGd2 of the present invention was greater than that of the non-aggregated complex LGd1 (FIG. 13). After 70 h, the relaxivities were retained 30, 50, 21, and 12% for LGd1-4, respectively.

[7] = Contrast-enhanced dynamic MRI in mice (CNR in liver and blood); type: in vivo, Balb/C mice
Procedure: The whole-body pharmacokinetics of T1 contrast agents can be measured by dynamic 2D or 3D MR imaging.
5-Week-old male Balb/C mice (n=3; OrientBio, Korea) were used for contrast-enhanced dynamic MRI. MRI was performed by using a 4.7 T MRI system (BioSpec 47/40; Bruker, Germany) with a quadrature birdcage RF coil (35 mm inner diameter) for signal transmission and reception.
Bolus of the contrast agents (0.1 mmol Gd/kg) was injected via tail vein. During MRI acquisition, the animals were anesthetized using 1-1.25% of inhalational isoflurane with O2:N2O (3:7) mixture.
To quantitatively measure signal intensity in region-of-interests (ROIs) as contrast-noise ratio (CNR), a reference of water sample (1 g/l CuSO4 in 8:2 of D2O:H2O) in a cylindrical tube (5 mm diameter) was used.
Dynamic 2D T1-weighted images were acquired using a spin-echo (SE) pulse sequence with the following parameters: TE/TR=10/400 ms, number of average=4, matrix size=256×256, slice thickness=1 mm, field of view=30×30 mm^2 (in axial slice) or 50×30 mm^2 (in coronal slice), and scan time=6 min 50 s).
Dynamic 3D T1-weighted images were acquired using a fast low angle shot gradient echo (FLASH) pulse sequence with parameters of TE/TR=2.4/7.5 ms, number of average=4, flip angle=30°, field of view=30×30×20 mm^3, matrix size=256×256×128, and scan time=12 min 17 s.

[8] = clinical liver-specific contrast agents; cited from earlier work
[9] = clinically used commercial T1 contrast agents, comparison values; cited from earlier work

SMILES: CCOc1ccc(CC(CN(CCN(CC(=O)[O-])CC(=O)[O-])CC(=O)[O-])N(CC(=O)[O-])CC(=O)[O-])cc1.[Gd+3].[Na+].[Na+] (centres unmarked) [Primovist®, Gd-EOB-DTPA]
- Hepatic excretion [8]: 50%
- Renal excretion [8]: 50%

SMILES: O=C([O-])CN(CCN(CC(=O)[O-])CC(COP(=O)([O-])OC1CCC(c2ccccc2)(c2ccccc2)CC1)N(CC(=O)[O-])CC(=O)[O-])CC(=O)[O-].[Gd+3].[Na+].[Na+].[Na+] (centres unmarked) [Vasovist®, diphenylcyclohexyl phosphodiester-Gd-DTPA]
- Hepatic excretion [8]: 8%
- Renal excretion [8]: 91%

SMILES: CNC[C@H](O)[C@@H](O)[C@H](O)[C@H](O)CO.CNC[C@H](O)[C@@H](O)[C@H](O)[C@H](O)CO.O=C([O-])CN(CCN(CC(=O)[O-])CC(=O)O)CCN(CC(=O)[O-])CC(=O)O.[Gd+3] [Magnevist ®, Gd-DTPA, reference compound]
- Relaxivity r1 ([1]; 20 MHz (0.47 T)): 4.70 mM⁻¹ s⁻¹
- Relaxivity r1 ([1]; 60 MHz (1.41 T)): 3.81 mM⁻¹ s⁻¹
- Relaxivity retained after transmetallation (commercial contrast agents) [9]: 50%

Continued, in another order:

- Relaxivity r1 ([1]; 20 MHz (0.47 T)): 30.3 mM⁻¹ s⁻¹ and 30.30 mM⁻¹ s⁻¹
- Relaxivity r1 ([1]; 60 MHz (1.41 T)): 23.4 mM⁻¹ s⁻¹ and 23.40 mM⁻¹ s⁻¹
- Relaxivity increase compared to Magnevist/Omniscan (Gd-DTPA, Gd-DTPA-BMA) ([1]; PBS, 0.47 T and 1.41 T): 6 fold
- Effective interaction with HSA (R1/R1^0) ([2]; 50 μM complex, HSA below 1.0 mM, 20 MHz): high
- Relaxivity r1^a (with HSA) ([2]; 20 MHz (0.47 T)): 41.0 mM⁻¹ s⁻¹ and 41.00 mM⁻¹ s⁻¹
- Relaxivity of adduct with HSA (r1^c) ([2]; adduct LGd3.HSA, 20 MHz (0.47 T), PBS): 41.0 mM⁻¹ s⁻¹
- Relaxivity of the non-aggregate form (r1^f) ([2]; below CMC, 20 MHz (0.47 T), PBS): 18.5 mM⁻¹ s⁻¹
- Binding constant (Ka) with HSA ([2]; non-covalent binding, theoretical equation, 20 MHz, PBS): (3.34±0.28)×10^3 M^−1
- Relaxivity variation Δr1 between pH 6 and 7.5 ([3]; 60 MHz, 36° C.): ~2.9
- Relaxivity variation Δr1 from pH 8 to pH 11 ([3]; 60 MHz, 36° C.): ~10.3
- Relaxivity at pH 8 ([3]; pH 8, 60 MHz (1.41 T), 36° C.): about 24.5 mM^−1s^−1
- Relaxivity at pH 10.5 ([3]; pH 10.5): about 17.3 mM^−1s^−1
- Relaxivity at pH 11 ([3]; pH 11, 60 MHz (1.41 T), 36° C.): 14.2 mM^−1s^−1
- Average diameter (FIG. 7) as printed in nm ([4]; FIG. 7): 51.2 nm
- DLS PDI of micelles at alkaline pH ([4]; FIG. 12, pH 10.5): 2.01
- DLS PDI of micelles ([4]; FIGS. 6 to 9): 1.46
- DLS average size of micelles ([4]; FIGS. 6 to 9, pH 7.4): 51.16 nm and 51.15 nm
- Critical micelle concentration (CMC) ([5]; 20 MHz, 36° C.): about 0.05 mM
- Critical micelle concentration (CMC) [5]: 50 µM
- Relaxivity retained after transmetallation [6]: 21%
- y0 of fit y0+A×exp(−t/C1) of proton relaxation rate during transmetallation [6]: 0.21
- Time of bright contrast enhancement in gall bladder after injection ([7]; 0.1 mmol Gd/kg i.v., 2D MR images): 2 to 4 h
SMILES: CCCCCCCCCC(=O)O[C@@H]1[C@H](OC(=O)CCCCCCCCC)[C@@H](CN(CCN(CC(=O)[O-])CC(=O)[O-])CCN(CC(=O)[O-])CC(=O)[O-])O[C@H]1n1ccc(=O)[nH]c1=O.[Gd+3] [LGd3]
- Duration of hyperintense CNR in liver (delayed hepatobiliary phase) ([7]; 0.1 mmol Gd/kg i.v.): at least 11 h
- Peak and plateau enhancement in liver parenchyma ([7]; 0.1 mmol Gd/kg i.v., CNR in liver from 1.67 to 4.0): about 240%
- Liver parenchyma enhancement versus same dose of Gd-DTPA-BMA ([7]; 0.1 mmol Gd/kg, 3D dynamic images): more intense and prolonged enhancement
- CNR in liver at 11 h above pre-value ([7]; 0.1 mmol Gd/kg, 11 h after injection): about 60%
- T1-contrasted enhancement in liver parenchyma, caudal vena cava and kidney ([7]; 30 min after injection, 0.1 mmol Gd/kg): markedly seen
- SI in liver compared with pre-injection value ([7]; 9 h after injection): still relatively high
- Duration of plateau-like constant CNR in liver ([7]; after maximum at about 2 h post-injection): about 2 h
- Peak CNR in liver ([7]; i.v. injection, 4.7 T): 4.0

- Relaxivity r1 ([1]; 20 MHz (0.47 T)): 5.10 mM⁻¹ s⁻¹
- Relaxivity r1 ([1]; 60 MHz (1.41 T)): 4.17 mM⁻¹ s⁻¹
- Relaxivity r1^a (with HSA) ([2]; 20 MHz (0.47 T)): 5.62 mM⁻¹ s⁻¹
- Relaxivity over the given pH range ([3]; pH 3.5-11, 60 MHz (1.41 T), 36° C.): 5.0±0.1 mM^−1s^−1 and 5.0±0.6 mM^−1s^−1
- Decrease of relaxivity at alkaline pH ([3]; pH 11, 60 MHz, 36° C.): about 10%
- Relaxivity retained after transmetallation [6]: 30%
- y0 of fit y0+A×exp(−t/C1) of proton relaxation rate during transmetallation [6]: 0.30
SMILES: O=C([O-])CN(CCN(CCN(CC(=O)[O-])CC(=O)[O-])C[C@H]1O[C@@H](n2ccc(=O)[nH]c2=O)[C@H](O)[C@@H]1O)CC(=O)[O-].[Gd+3] [LGd1]
